Results from ChEMBL document CHEMBL1139512, “Further studies on the interaction of the 5-hydroxytryptamine3 (5-HT3) receptor with arylpiperazine ligands. development of a new 5-HT3 receptor ligand showing potent acetylcholinesterase inhibitory properties” (J Med Chem, 2005).

Legend:
[1] = target: T1, Serotonin 3 (5-HT3) receptor (Rattus norvegicus, UniProt P35563+Q9JJ16)
T1 sequence (P35563 whole entry): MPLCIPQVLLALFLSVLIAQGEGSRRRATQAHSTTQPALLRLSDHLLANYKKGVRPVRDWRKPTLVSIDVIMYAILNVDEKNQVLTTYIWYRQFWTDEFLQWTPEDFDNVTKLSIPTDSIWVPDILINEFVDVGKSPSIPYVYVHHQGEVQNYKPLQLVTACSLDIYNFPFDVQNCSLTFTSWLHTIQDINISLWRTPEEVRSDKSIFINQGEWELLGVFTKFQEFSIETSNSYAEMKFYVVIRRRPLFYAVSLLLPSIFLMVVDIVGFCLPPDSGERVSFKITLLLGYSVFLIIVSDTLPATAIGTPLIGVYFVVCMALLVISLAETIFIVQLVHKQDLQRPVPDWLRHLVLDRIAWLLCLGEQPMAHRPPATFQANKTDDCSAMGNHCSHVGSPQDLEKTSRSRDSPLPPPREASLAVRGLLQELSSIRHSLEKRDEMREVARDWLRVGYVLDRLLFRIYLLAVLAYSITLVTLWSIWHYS
T1 sequence (Q9JJ16 whole entry): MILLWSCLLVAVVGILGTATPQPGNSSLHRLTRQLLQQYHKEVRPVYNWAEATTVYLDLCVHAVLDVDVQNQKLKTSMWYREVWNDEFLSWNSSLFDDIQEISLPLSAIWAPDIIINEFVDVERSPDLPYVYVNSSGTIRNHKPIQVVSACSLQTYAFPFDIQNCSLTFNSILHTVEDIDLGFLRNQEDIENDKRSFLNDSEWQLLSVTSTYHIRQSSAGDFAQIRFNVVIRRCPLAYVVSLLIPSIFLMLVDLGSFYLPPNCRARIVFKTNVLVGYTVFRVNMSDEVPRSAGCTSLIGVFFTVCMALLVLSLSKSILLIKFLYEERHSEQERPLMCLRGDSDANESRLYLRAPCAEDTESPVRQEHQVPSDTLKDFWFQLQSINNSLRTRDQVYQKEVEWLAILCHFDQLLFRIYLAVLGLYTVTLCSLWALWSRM

[2] = target: T2, Cholinesterase (Homo sapiens, UniProt P06276)
[3] = target: T3, Acetylcholinesterase (Homo sapiens, UniProt P22303)
Description: (§1) Inhibitory concentration against human acetylcholinesterase

[4] = target: T2, Cholinesterase; assay: Inhibitory concentration against butyrylcholinesterase
[5] = target: T3, Acetylcholinesterase; remark: listed apart in the source
Description: as §1

T2 sequence (P06276 whole entry): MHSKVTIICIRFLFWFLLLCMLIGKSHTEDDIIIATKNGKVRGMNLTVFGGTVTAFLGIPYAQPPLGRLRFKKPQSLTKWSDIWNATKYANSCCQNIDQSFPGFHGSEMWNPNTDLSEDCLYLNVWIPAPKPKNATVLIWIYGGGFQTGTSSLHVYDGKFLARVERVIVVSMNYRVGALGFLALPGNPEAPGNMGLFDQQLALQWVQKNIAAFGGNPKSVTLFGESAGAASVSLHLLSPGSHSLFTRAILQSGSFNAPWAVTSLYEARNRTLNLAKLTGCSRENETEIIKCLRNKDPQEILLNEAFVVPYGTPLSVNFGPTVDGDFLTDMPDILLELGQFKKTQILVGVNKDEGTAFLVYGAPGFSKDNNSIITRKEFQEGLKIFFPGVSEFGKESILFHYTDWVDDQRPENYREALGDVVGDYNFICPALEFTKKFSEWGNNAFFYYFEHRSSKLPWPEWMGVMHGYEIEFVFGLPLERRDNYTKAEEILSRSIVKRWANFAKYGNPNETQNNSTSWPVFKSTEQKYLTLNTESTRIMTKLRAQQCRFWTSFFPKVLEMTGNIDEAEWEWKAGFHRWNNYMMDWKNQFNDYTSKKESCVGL
T3 sequence (P22303 whole entry): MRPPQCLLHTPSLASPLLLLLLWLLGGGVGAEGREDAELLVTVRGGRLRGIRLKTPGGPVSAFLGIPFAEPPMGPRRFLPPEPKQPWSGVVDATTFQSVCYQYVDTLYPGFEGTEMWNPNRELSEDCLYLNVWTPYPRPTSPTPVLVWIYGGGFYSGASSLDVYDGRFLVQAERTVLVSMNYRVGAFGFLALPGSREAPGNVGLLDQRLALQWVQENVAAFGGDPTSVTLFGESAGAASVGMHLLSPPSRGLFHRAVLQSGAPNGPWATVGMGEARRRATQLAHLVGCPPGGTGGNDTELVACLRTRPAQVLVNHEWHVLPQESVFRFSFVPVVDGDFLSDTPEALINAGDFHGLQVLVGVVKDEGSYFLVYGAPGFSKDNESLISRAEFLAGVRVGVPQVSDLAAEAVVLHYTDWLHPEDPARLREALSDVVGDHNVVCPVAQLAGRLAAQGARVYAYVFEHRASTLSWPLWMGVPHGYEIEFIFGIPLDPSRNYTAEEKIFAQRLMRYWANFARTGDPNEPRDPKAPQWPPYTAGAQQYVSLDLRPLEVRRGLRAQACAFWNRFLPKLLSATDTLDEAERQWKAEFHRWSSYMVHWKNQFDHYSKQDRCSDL

Work on `CCCN(CCC)C(=O)c1c(C)c(N2CCN(C)CC2)nc2ccccc12` yielded a Ki [1] of 0.11 nM.
Work on `CN1CCN(c2cc(C(=O)N(C)Cc3ccccc3)c3ccccc3n2)CC1` yielded a Ki [1] of 0.41 nM.
In the case of `Cc1c(N2CCN(C)CC2)nc2ccccc2c1C(=O)N(C)Cc1ccccc1`, the Ki [1] is reported as 0.55 nM, the IC50 [2] is reported as greater than 10000 nM and the IC50 [3] is reported as greater than 10000 nM.
For `Cc1c(N2CCN(C)CC2)nc2ccccc2c1C(=O)N(C)c1ccc(Cl)cc1`, the Ki [1] was 13 nM.
In the case of `CN1CCN(c2nc3ccccc3c3c2CN(C)C3=O)CC1`, the Ki [1] is reported as 2.1 nM.
Work on `CCN1Cc2c(N3CCN(C)CC3)nc3ccccc3c2C1=O` yielded a Ki [1] of 3 nM.
With `CCCCCCN(CCCCCC)C(=O)c1c(C)c(N2CCN(C)CC2)nc2ccccc12` the Ki [1] was 188 nM.
Work on `C#CCN(C)C(=O)c1c(C)c(N2CCN(C)CC2)nc2ccccc12` yielded a Ki [1] of 0.45 nM.
`CCCCN(CCCC)C(=O)c1c(C)c(N2CCN(C)CC2)nc2ccccc12` showed a Ki [1] of 0.78 nM.
`CN1CCN(c2nc3ccccc3c3c2CN(Cc2ccccc2)C3=O)CC1` gave a Ki [1] of 6.2 nM.
`Cc1c(N2CCN(C)CC2)nc2ccccc2c1C(=O)N(C(C)C)C(C)C` showed a Ki [1] of 2.2 nM.
`CCOC(=O)c1c(CC)c(N2CCN(C)CC2)nc2ccccc12` showed a Ki [1] of 0.21 nM.
`Cc1c(N2CCN(C)CC2)nc2ccccc2c1C(=O)c1ccccc1` was tested, and the Ki [1] was 0.84 nM.
In the case of `CCCN(CCC)C(=O)c1cc(N2CCN(C)CC2)nc2ccccc12`, the Ki [1] is reported as 0.68 nM.
In the case of `CCOC(=O)c1cc(N2CCN(C)CC2)nc2ccccc12`, the Ki [1] is reported as 0.85 nM.
In the case of `CCCc1c(N2CCN(C)CC2)nc2ccccc2c1C(=O)N(CC)CC`, the Ki [1] is reported as 0.92 nM.
`Cc1c(N2CCN(C)CC2)nc2ccccc2c1C(=O)N1CCCC1` gave a Ki [1] of 1.6 nM.
`CCCN(CCC)C(=O)c1c(CC)c(N2CCN(C)CC2)nc2ccccc12` was tested, and the Ki [1] was 1.1 nM.
With `CCCc1c(N2CCN(C)CC2)nc2ccccc2c1C(=O)N(CCC)CCC` the Ki [1] was 1.2 nM.
`Cc1c(N2CCN(C)CC2)nc2ccccc2c1C(=O)NCCCCCCCNc1c2c(nc3ccccc13)CCCC2` was tested, and the IC50 [4] was 40 nM, the Ki [1] was 5.6 nM and the IC50 [5] was 4.1 nM.
`Cc1c(Cl)nc2ccccc2c1C(=O)NCCCCCCCNc1c2c(nc3ccccc13)CCCC2` was tested, and the IC50 [4] was 32 nM and the IC50 [5] was 3 nM.
With `CN1CCN(c2nc3ccccc3c3c2COC3=O)CC1` the Ki [1] was 2.4 nM.
For `CCN(CC)C(=O)c1cc(N2CCN(C)CC2)nc2ccccc12`, the Ki [1] was 1.6 nM.
Compound `CCOC(=O)c1c(N2CCN(C)CC2)nc2ccccc2c1C` has a Ki [1] of 0.17 nM.
For `CCCN1Cc2c(N3CCN(C)CC3)nc3ccccc3c2C1=O`, the Ki [1] was 3.6 nM.
In the case of `CCc1c(N2CCN(C)CC2)nc2ccccc2c1C(=O)N(CC)CC`, the Ki [1] is reported as 0.51 nM.
`CCN(CC)C(=O)c1c(C)c(N2CCN(C)CC2)nc2ccccc12` showed a Ki [1] of 0.37 nM.
`CN1CCN(c2nc3ccccc3c(CO)c2CO)CC1` was tested, and the Ki [1] was 2.7 nM.
`CCC(C)N1Cc2c(N3CCN(C)CC3)nc3ccccc3c2C1=O` (stereo not drawn) was tested, and the Ki [1] was 4.2 nM.
`CCCc1c(N2CCN(C)CC2)nc2ccccc2c1C(=O)N(C)Cc1ccccc1` gave a Ki [1] of 14 nM.
Work on `CCOC(=O)c1c(C)c(N2CCNCC2)nc2ccccc12` yielded a Ki [1] of 0.56 nM.
For `CCc1c(N2CCN(C)CC2)nc2ccccc2c1C(=O)N(C)Cc1ccccc1`, the Ki [1] was 10 nM.
In the case of `CCOC(=O)c1c(C)c(N2CCN(C)CC2)nc2ccccc12`, the Ki [1] is reported as 0.43 nM, the IC50 [2] is reported as greater than 10000 nM and the IC50 [3] is reported as greater than 10000 nM.
For `CCCCCN(CCCCC)C(=O)c1c(C)c(N2CCN(C)CC2)nc2ccccc12`, the Ki [1] was 19 nM.
Work on `CCCc1c(N2CCN(C)CC2)nc2ccccc2c1C(=O)OCC` yielded a Ki [1] of 0.08 nM.
`CN1CCN(c2nc3ccccc3c3c2CCC3)CC1` gave a Ki [1] of 0.24 nM.
